logIC50, logKi and IC50 data for 21 compounds are collected here from ChEMBL document CHEMBL1155424, “3D-QSAR and docking studies on transforming growth factor (TGF)-beta receptor 1 antagonists” (Bioorg Med Chem Lett, 2010).

One assay addresses T1, TGF-beta receptor type-1 (Homo sapiens) (UniProt P36897).
T1 sequence (whole entry): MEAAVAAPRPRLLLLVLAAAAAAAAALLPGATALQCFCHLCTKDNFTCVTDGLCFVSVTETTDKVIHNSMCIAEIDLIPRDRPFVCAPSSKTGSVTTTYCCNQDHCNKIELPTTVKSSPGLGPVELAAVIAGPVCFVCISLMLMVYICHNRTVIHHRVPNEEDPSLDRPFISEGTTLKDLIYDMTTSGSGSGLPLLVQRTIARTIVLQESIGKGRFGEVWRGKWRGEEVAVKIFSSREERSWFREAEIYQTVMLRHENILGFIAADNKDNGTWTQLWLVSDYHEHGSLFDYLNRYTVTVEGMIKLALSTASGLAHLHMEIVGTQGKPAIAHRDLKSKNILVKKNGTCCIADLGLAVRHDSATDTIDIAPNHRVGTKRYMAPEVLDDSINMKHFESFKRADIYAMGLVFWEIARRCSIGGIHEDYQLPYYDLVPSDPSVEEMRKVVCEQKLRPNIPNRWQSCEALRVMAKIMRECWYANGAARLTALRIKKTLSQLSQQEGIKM
Description: Antagonistic activity at TGFBR1
Consider `Cc1cccc(-c2[nH]c(C(C)(C)C)nc2-c2ccc3c(c2)OCO3)n1`, for which the logIC50 is -1.33. Still for that read-out and setting: then `Cc1cccc(-c2[nH]c(CNc3cccc(C#N)c3)nc2-c2ccc3c(c2)OCO3)n1`, with -1.34; and `Cc1cccc(-c2[nH]c(NCc3ccc(C#N)cc3)nc2-c2ccc3c(c2)OCO3)n1`, with -0.815; and `CCc1cccc(-c2[nH]c(CNc3cccc(C(N)=O)c3)nc2-c2ccc3c(c2)OCO3)n1`, with -1.34. In turn, `Cc1cccc(-c2[nH]c(CNc3ccc(C#N)cc3)nc2-c2ccc3c(c2)OCO3)n1` came in with a logIC50 of -0.759. `Cc1cccc(-c2[nH]c(CNc3ccc(C(N)=O)cc3)nc2-c2ccc3c(c2)OCO3)n1` registered a logIC50 of -0.582. In turn, `OCc1ccc(-c2nc(-c3ccccn3)c(-c3ccc4c(c3)OCO4)[nH]2)cc1` returned a logKi of -0.585. Compound `CCc1cccc(-c2[nH]c(CNc3cccc(C(N)=O)c3)nc2-c2ccc3nccnc3c2)n1` displayed a logIC50 of -1.82. The compound `CCc1cccc(-c2[nH]c(CNc3cccc(C#N)c3)nc2-c2ccc3c(c2)OCO3)n1` gave a logIC50 of -1.14. In turn, `Cc1cccc(-c2[nH]c(CNc3cccc(C(N)=O)c3)nc2-c2ccc3nccnc3c2)n1` displayed a logKi of -2. For the compound `Cc1cccc(-c2[nH]c(CNc3ccc(C#N)cc3)nc2-c2ccc3nccnc3c2)n1`, the logIC50 is -1.38. In turn, `Cc1cccc(-c2[nH]c(CNc3cccc(C#N)c3)nc2-c2ccc3nccnc3c2)n1` yielded a logIC50 of -1.92.

Regarding `Cc1cccc(-c2[nH]c(CNc3cccc(C(N)=O)c3)nc2-c2ccc3c(c2)OCO3)n1`, the logIC50 is -1.68. `Cc1cccc(-c2[nH]c(CNc3ccc(C(N)=O)cc3)nc2-c2ccc3nccnc3c2)n1` had a logIC50 of -1.12. `O=C(O)c1ccc(-c2nc(-c3ccc4c(c3)OCO4)c(-c3ccccn3)[nH]2)cc1`: the logIC50 is -0.77. Consider `Cc1cccc(-c2[nH]c(NCc3cccc(C#N)c3)nc2-c2ccc3c(c2)OCO3)n1`, for which the logIC50 was -1.62.

The compound `CCc1cccc(-c2[nH]c(CNc3cccc(C#N)c3)nc2-c2ccc3nccnc3c2)n1` displayed a logIC50 of -0.924.

`N#Cc1ccc(-c2nc(-c3ccc4c(c3)OCO4)c(-c3ccccn3)[nH]2)cc1` displayed a logIC50 of 0.47. `CCc1cccc(-c2[nH]c(CNc3ccc(C#N)cc3)nc2-c2ccc3nccnc3c2)n1` yielded a logKi of -1.32. Take `CCc1cccc(-c2[nH]c(CNc3ccc(C(N)=O)cc3)nc2-c2ccc3c(c2)OCO3)n1`: the logIC50 is -0.415. `CCc1cccc(-c2[nH]c(CNc3ccc(C#N)cc3)nc2-c2ccc3c(c2)OCO3)n1`: the logIC50 was -0.443.

The next assay concerns the target T2, TGF-beta receptor type-1 (Homo sapiens, UniProt P36897).
T2 sequence (P36897 whole entry): T1 sequence (whole entry)
Description: Antagonistic activity at TGFBR1
What is called IC50 is the concentration that inhibits the measured activity by half. Low readings indicate inhibition by little substance, high ones a need for much substance. Consider `Cc1cccc(-c2[nH]c(CNc3ccc(C#N)cc3)nc2-c2ccc3c(c2)OCO3)n1`, for which half-maximal inhibition (IC50) required 171 nM.
